In patent US4963570A, “1-(acetylaminophenyl)-2-aminopropanone derivatives and pharmaceutical compositions thereof” (Laboratoire L. Lafon, priority 1983, dated 1990):
Entries after “also recorded” stand apart in the source; their conditions may differ. Where a name gives a salt, the structure may show the parent alone.

Tests used:
mice [1] = test: interaction with barbital; assay type: in vivo, mouse; conditions: i.p.
Method: Half an hour after the administration of CRL 41 224, groups of 10 mice receive an intraperitoneal injection of barbital (220 mg/kg).

mice [2] = test: four plate test, traction and electric shock; assay type: in vivo, mouse; conditions: i.p.
Method: The test is performed on groups of 10 mice 30 minutes after the administration of CRL 41 224.

mice [3] = test: interaction with reserpine; assay type: in vivo, mouse; conditions: i.p.
Method: Four hours after the intraperitoneal injection of 2.5 mg/kg of reserpine, groups of 6 mice receive CRL 41 224.

mice [4] = test: interaction with oxotremorine; assay type: in vivo, mouse
Method: CRL 41 224 is administered to groups of 6 mice 0.5 hour before the intraperitoneal injection of 0.5 mg/kg of oxotremorine.

mice [5] = test: motility reduced by habituation to the enclosure; assay type: in vivo, mouse; conditions: i.p.
Method: After they have stayed in the actimeters for 18 hours, the mice (6 per dose, 12 control animals) receive CRL 41 224. They are immediately returned to their respective enclosures and, half an hour later, their motility is recorded for 30 minutes.

male mice = test: acute toxicity, intraperitoneal (lethal doses); assay type: in vivo, mouse; conditions: i.p.
Method: By intraperitoneal administration to male mice, the LD-30 (lethal dose for 30% of the animals tested) is of the order of 128 mg/kg and the LD-50 is of the order of about 200 mg/kg.

mice [6] = test: overall behavior and reactivities in mice; assay type: in vivo, mouse; conditions: mice, i.p.
Method: (§1) Groups of three animals are observed before and then 0.25 hour, 0.50 hour, 1 hour, 2 hours, 3 hours and 24 hours after the administration of CRL 41 224.

mice [7] = test: action on the behavioral despair; assay type: in vivo, mouse; conditions: i.p.
Text: Half an hour after they have received CRL 41 224, groups of 6 mice are placed in a beaker filled with water to a height of 6 cm. The total period of immobility between the 2nd and 6th minutes following immersion is noted.

rats [8] = test: interaction with apomorphine in rats; assay type: in vivo, rat; conditions: i.p.
Method: CRL 41 224 is administered to groups of 6 rats 0.5 hour before the subcutaneous injection of 0.5 mg/kg of apomorphine.

mice [9] = test: action on the spontaneous motility (actimeter); assay type: in vivo, mouse; conditions: mice, i.p.
Method: 0.5 hour after they have received CRL 41 224, the mice (6 per dose, 12 control animals) are placed in an actimeter, where their motility is recorded for 30 minutes.

[10] = system: peripheral α-adrenergic stimulation; test: signs of peripheral adrenergic stimulation; assay type: in vivo, mouse; rat; conditions: i.p., dose not stated
Method: as §1

rats [11] = test: overall behavior and reactivities in rats; assay type: in vivo, rat; conditions: i.p.
Method: as §1

rats [12] = test: interaction with amphetamine; assay type: in vivo, rat; conditions: rats, i.p.
Method: Amphetamine (2 mg/kg) is injected intraperitoneally into groups of 6 rats 30 minutes after the administration of CRL 41 224.

mice [13] = test: action on the intergroup aggression; assay type: in vivo, mouse; conditions: i.p.
Method: After they have stayed for 3 weeks in the 2 halves of a cage divided by an opaque partition, groups of 3 mice receive CRL 41 224. Half an hour later, the two groups from the same cage are brought together by removal of the partition, and the number of fights which occur in 10 minutes is noted. Half the test is performed on ordinary mice (NMRI, C.E.R. January) and half on NMRI (Iffa Credo) mice.

CNS = test: overall neuropsychopharmacological (CNS) profile; assay type: in vivo, mouse; rat; conditions: i.p., mice and rats, dose not stated
Method: The neuropsychopharmacological study of CRL 41 219 was carried out as indicated above for CRL 41 224.
The neuropsychopharmacological study of CRL 41 220 was carried out in accordance with the procedures given above for CRL 41 224.

mice [14] = test: interaction with apomorphine in mice; assay type: in vivo, mouse
Method: Groups of 6 mice receive CRL 41 224 0.5 hour before the subcutaneous injection of 1 or 16 mg/kg of apomorphine.

mice [15] = test: motility reduced by hypoxic aggression; assay type: in vivo, mouse
Method: Half an hour after they have received CRL 41 224, the mice (10 per dose, 20 control animals) are subjected to acute hypobaric anoxia [pressure reduction of 600 mm Hg (i.e. about 8×10^4 Pa) in 90 seconds; release of vacuum in 45 seconds] and are then placed in an actimeter, where their motility is recorded for 10 minutes.

mice [16] = test: asphyxiant anoxia (gallamine triiodoethylate); assay type: in vivo, mouse; conditions: mice, i.p.; gallamine triiodoethylate 32 mg/kg i.p.
Method: Groups of 10 mice receive CRL 41 224 half an hour before the intraperitoneal administration of 32 mg/kg of gallamine triiodoethylate (reference curarizing agent).

[17] = mice, i.p., 8, 32 and 128 mg/kg, apomorphine 1 or 16 mg/kg s.c.

CC(=O)Nc1ccc(C(=O)C(C)NC2CC2)cc1 (stereo not shown) [CRL 41 245]
sleep induced by barbital (mice [1]; dose not stated): reduction in the duration of the sleep induced by barbital | convulsant effects of electric shock (mice [2]; strong/high dose): total antagonism | number of punished passes in the 4 plate test (mice [2]; mice, dose not stated): increase in the number of punished passes | hypothermia induced by reserpine (mice [3]; dose not stated): antagonism of the hypothermia induced by apomorphine, reserpine | ptosis induced by reserpine (mice [3]; dose not stated): reduction in the ptosis induced by reserpine | trembling due to oxotremorine (mice [4]; i.p., strong dose): a reduction, at a strong dose, in the intensity of the trembling due to oxotremorine | hypothermia induced by oxotremorine (mice [4]; i.p., dose not stated): antagonism of the hypothermia induced by apomorphine, reserpine and oxotremorine | motor activity after habituation to the enclosure (mice [5]; dose not stated): resumption in the motor activity of mice accustomed to their enclosure | LD-0 (maximum non-lethal dose) (male mice): greater than 256 mg/kg | LD-100 (male mice): less than or equal to 512 mg/kg | excitation in mice (mice [6]; dose not stated): excitation with hyperreactivity in mice | stereotype movements in mice (mice [6]; dose not stated): presence of stereotype movements in mice | period of immobility or "despair" (mice [7]; dose not stated): reduction in the period of immobility | stereotypies induced by apomorphine (rats [8]; dose not stated): potentiation of the stereotypies induced by apomorphine | spontaneous motility / motor activity (mice [9]; dose not stated): increase in the spontaneous motor activity | mydriasis [10]: mydriasis in rats | peripheral adrenergic stimulation, overall [10]: peripheral α-adrenergic stimulation | piloerection ([10]; mice and rats): piloerection in mice and rats | excitation in rats (rats [11]; dose not stated): excitation with hyperreactivity in mice and rats | stereotype movements in rats (rats [11]; dose not stated): presence of stereotype movements in mice and rats | stereotypies induced by amphetamine (rats [12]; dose not stated): potentiation of the stereotypies induced by apomorphine and amphetamine | intergroup aggression (mice [13]; dose not stated): a reduction in the intergroup aggression | overall action on the CNS (CNS): behaves as an antidepressant with a strong stimulant component | hypothermia induced by apomorphine (mice [14]; i.p., dose not stated): antagonism of the hypothermia induced by apomorphine | motor recovery after hypoxic aggression (mice [15]; i.p., dose not stated): improvement in the motor recovery in mice subjected to acute hypoxia

CCNC(C)C(=O)c1ccc(NC(C)=O)cc1 (stereo not shown) [CRL 41 224, 1-(4-acetylaminophenyl)-2-ethylaminopropanone hydrochloride]
antagonism of the sleep induced by barbital (mice [1]; mice, 32 mg/kg): total antagonism | duration of the sleep induced by barbital (mice [1]; mice, as from 2 mg/kg, barbital 220 mg/kg i.p.): reduces the duration of the sleep induced by barbital | time taken for convulsions and death to occur following asphyxiant anoxia (mice [16]): does not change the time taken for convulsions and death to occur | convulsant effects of electric shock (mice [2]; mice, 128 mg/kg): does not aggravate the convulsant effects | lethal effects of electric shock (mice [2]; mice, 128 mg/kg): does not modify the lethal effects of electric shock | motor incapacity (traction) (mice [2]; mice, 128 mg/kg): does not cause major motor incapacity | number of punished passes (four plate test) (mice [2]; mice, 128 mg/kg): increase in the number of punished passes | ptosis induced by reserpine (mice [3]; mice, 128 mg/kg): reduces the intensity of the ptosis induced by reserpine | significance of the antagonism of hypothermia induced by reserpine (mice [3]; mice, 32 and 128 mg/kg): significant | hypothermia induced by reserpine (mice [3]; mice, as from 2 mg/kg, reserpine 2.5 mg/kg i.p.): opposes the hypothermia induced by reserpine | signs of peripheral cholinergic stimulation induced by oxotremorine (mice [4]; mice, i.p.): does not modify the signs of peripheral cholinergic stimulation | hypothermic action of oxotremorine (mice [4]; mice, i.p., 2, 8 and especially 32, 128 mg/kg, oxotremorine 0.5 mg/kg i.p.): opposes the hypothermic action of oxotremorine | trembling induced by oxotremorine (mice [4]; mice, i.p., 8, 32 and especially 128 mg/kg): distinctly reduces the intensity of the trembling induced by oxotremorine | motor activity of mice accustomed to their enclosure (mice [5]; 32 and 128 mg/kg): distinct resumption in the motor activity | excitation, duration (mice [6]; 32 mg/kg): 3 h | excitation, duration (mice [6]; 128 mg/kg): 3 h | hyperthermia, temperature change (mice [6]; 128 mg/kg): +0.9 °C | increase in the reactivity to touch and muscular tonus, duration (mice [6]; 128 mg/kg): 24 h | moderate mydriasis, duration (mice [6]; 128 mg/kg): 3 h | forms of behavior, reactivities and variations in pupil diameter and rectal temperature (mice [6]; 2 and 8 mg/kg): substantially comparable to those of the control group | period of immobility (forcibly immersed mice) (mice [7]; 8 and especially 32, 128 mg/kg): reduces the period of immobility | stereotypies induced by apomorphine (rats [8]; 16 and especially 64 mg/kg, apomorphine 0.5 mg/kg s.c.): potentiation of the stereotypies induced by apomorphine | spontaneous motor activity (mice [9]; 8 and especially 32, 128 mg/kg): increases the spontaneous motor activity | peripheral adrenergic stimulation, overall [10]: peripheral α-adrenergic stimulant effects | mydriasis (rats [11]; 1 mg/kg): brief mydriasis | mydriasis, time of appearance after administration (rats [11]; 1 mg/kg): 0.5 h | mydriasis, duration (rats [11]; 4 mg/kg): 2 h | mydriasis, duration (rats [11]; 16 mg/kg): 3 h | stereotypies, duration (rats [11]; 16 mg/kg): 3 h | excitation, duration (rats [11]; 64 mg/kg): 1 h | hyperthermia, duration (rats [11]; 64 mg/kg): 3 h | hyperthermia, temperature change (rats [11]; 64 mg/kg): +1.5 °C | increase in the reactivity to touch and muscular tonus, duration (rats [11]; 64 mg/kg): 3 h | mydriasis, duration (rats [11]; 64 mg/kg): 3 h | piloerection, duration (rats [11]; 64 mg/kg): 1 h | stereotypies, duration (rats [11]; 64 mg/kg): 3 h | stereotypies induced by amphetamine (rats [12]; 16 and especially 64 mg/kg, amphetamine 2 mg/kg i.p.): potentiation of the stereotypies induced by amphetamine | number of fights (mice [13]; 128 mg/kg): reduces the number of fights | overall action on the CNS (CNS; hydrochloride): antidepressant effects; also recorded: stimulant effects; also recorded: behaves as an antidepressant for the CNS | hypothermia induced by apomorphine (mice [14]; [17]): opposes the hypothermia induced by apomorphine | righting behavior and stereotypy behavior (apomorphine) (mice [14]; [17]): without modifying the righting behavior and stereotypy behavior | motor recovery after acute hypobaric anoxia (mice [15]; i.p., 8, 32 and especially 128 mg/kg): distinct improvement in the motor recovery
